According to PubChem BioAssay (NCI):
Values joined by “and” are separate entries in the source; they are usually repeats but may differ in a detail not shown here. Equal entries are not always repeated.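 How tested: cells in 96-well plates exposed to compound for 48 hours at five concentrations. At the GI50, growth is halved. TGI is the concentration that stops growth completely.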

Key:
Test in all cases: DTP human tumour cell line panel, 48 h
ACHN renal = test system: ACHN renal
CCRF-CEM leukemia = test system: CCRF-CEM leukemia
COLO 205 colon = test system: COLO 205 colon
HL-60(TB) leukemia = test system: HL-60(TB) leukemia
HOP-62 NSCLC = test system: HOP-62 NSCLC
LOX IMVI melanoma = test system: LOX IMVI melanoma
NCI-H460 lung = test system: NCI-H460 lung
OVCAR-5 ovarian = test system: OVCAR-5 ovarian
SF-295 CNS = test system: SF-295 CNS
TK-10 renal = test system: TK-10 renal

Structure (SMILES) | GI50 (ACHN renal) | TGI (ACHN renal) | GI50 (CCRF-CEM leukemia) | TGI (CCRF-CEM leukemia) | GI50 (COLO 205 colon) | TGI (COLO 205 colon) | GI50 (HL-60(TB) leukemia) | TGI (HL-60(TB) leukemia) | GI50 (HOP-62 NSCLC) | TGI (HOP-62 NSCLC) | GI50 (LOX IMVI melanoma) | TGI (LOX IMVI melanoma) [µM] | GI50 (NCI-H460 lung) | TGI (NCI-H460 lung) | GI50 (OVCAR-5 ovarian) | TGI (OVCAR-5 ovarian) | GI50 (SF-295 CNS) | TGI (SF-295 CNS) | GI50 (TK-10 renal) | TGI (TK-10 renal)
C=CC[n+]1c(/C=C/C=C2\N(C)c3ccccc3C2(C)C)sc2ccc(OC)cc21 | 1.65 µM | 10.9 µM | 0.287 µM | 12.7 µM | 0.188 µM | 0.591 µM | 0.156 µM | 0.732 µM | 0.291 µM | 11.9 µM | 0.313 µM | 15.1 | 0.199 µM | 12.1 µM | 0.504 µM | 14.9 µM | 0.18 µM | 3 µM | 0.235 µM | 14.8 µM
NC(=O)NNCc1ccccc1 |  | > 100 µM |  | > 100 µM |  | > 100 µM |  | > 100 µM |  | > 100 µM |  | > 100 |  | > 100 µM |  | > 100 µM |  | > 100 µM |  | > 100 µM
CC(C)[C@]12O[C@H]1[C@@H]1O[C@]13[C@]1(O[C@H]1C[C@H]1C4=C(CC[C@@]13C)C(=O)OC4)[C@@H]2O | 0.0102 µM | > 100 µM | 0.0255 µM | 0.297 µM | 0.0117 µM | 0.0219 µM and 0.0366 µM | < 0.0111 µM | 0.0495 µM | 0.0248 µM |  | < 0.01 µM | 0.0251 | < 0.01 µM | > 100 µM | 0.0325 µM and 0.0282 µM | > 100 µM |  | 0.646 µM and 0.934 µM | 0.0278 µM | > 100 µM
CC1(C)N=C(N)N=C(N)N1c1cccc(CCCCc2cccc(S(=O)(=O)F)c2)c1 | 11.8 µM | > 100 µM | 0.559 µM | 53.4 µM | 1.53 µM | > 100 µM | 1.95 µM | 47.8 µM | 3.04 µM | > 47.9 µM | 0.424 µM | > 100 | 0.327 µM | > 75.7 µM |  | > 100 µM | 2.45 µM | > 100 µM | 4.85 µM | > 100 µM
COc1ccc2[nH]c(=O)c3c4ccccc4cn3c2c1 | 0.486 µM | 1.72 µM | 0.322 µM | 1.48 µM | 0.373 µM | 1.36 µM | 0.186 µM | 0.548 µM | 0.228 µM | 0.885 µM | 0.776 µM | 2.11 | 0.19 µM | 1.31 µM | 0.659 µM | 2.69 µM | 0.393 µM | 1.71 µM | 1.28 µM | 5.02 µM
CCN(CC)CCOCC[C@H]1CC[C@H]2[C@@H]3[C@H](C)Cc4cc(OS(N)(=O)=O)ccc4[C@H]3CC[C@]12C | 1.95 µM | 5.33 µM | 1.14 µM | 4.34 µM | 0.62 µM | 1.78 µM | 1.64 µM | 3.87 µM | 1.43 µM | 2.88 µM | 1.33 µM | 2.77 | 1.23 µM | 2.56 µM | 2.52 µM | 7.34 µM | 0.626 µM | 2.14 µM | 1.3 µM | 3.34 µM
CCOC(=O)c1ccc2[nH]c(-c3ccc(S(=O)(=O)F)cc3)cc(=O)c2c1 |  | 84.2 µM |  | > 100 µM |  | > 100 µM |  | > 100 µM |  | > 100 µM |  | > 100 |  | > 100 µM |  | > 100 µM |  | > 100 µM |  | > 100 µM
CC[C@]12CCCN3CCc4c(n(c5ccccc45)C(=O)C1)[C@@H]32 |  | > 100 µM |  | 33.1 µM |  | > 34 µM |  | 8.51 µM |  | > 100 µM |  | > 100 |  | > 100 µM |  | > 100 µM |  | 18.4 µM |  | > 90 µM
N#Cc1ccccc1NC(=O)/C(=N\N)C(C(=O)c1ccncc1)C1OC(=O)c2ccccc21 (stereo unspecified) |  | > 100 µM |  | > 100 µM |  | > 100 µM |  | > 100 µM |  | > 100 µM |  | > 100 |  | > 100 µM |  | > 100 µM |  | > 100 µM |  | > 100 µM
CN(C)CCOc1ccc(-c2nc(-c3ccc4c(c3)CC/C4=N\O)c(-c3ccncc3)[nH]2)cc1 | 4.79 µM and 5.03 µM | 9.01 µM and 22 µM | 4.32 µM and 2.43 µM | 11.3 µM and 10.2 µM | 0.00987 µM and 0.0293 µM | 3.1 µM and 5.06 µM | 2.83 µM and 2.45 µM | 7.44 µM and 14.5 µM | 4.3 µM and 4.48 µM | 9.23 µM and 13.1 µM | 0.934 µM and 1.51 µM | 6.46 | 4.14 µM and 4.55 µM | 8.24 µM and 17.2 µM | 3.7 µM and 1.61 µM | 7.55 µM and 6.27 µM | 4.6 µM and 8.82 µM | 9.42 µM and 21.4 µM | 5.66 µM and 5.27 µM | 10.1 µM and 10.4 µM
CCNC(=O)[C@@H]1CCCN2C(=O)CC[C@H](NC(=O)[C@H](Cc3ccc(OP(=O)(O)O)cc3)NC(C)=O)C(=O)N12 | > 25 µM | > 25 µM | > 25 µM | > 25 µM | > 25 µM | > 25 µM | > 25 µM | > 25 µM | > 25 µM | > 25 µM | > 25 µM | > 25 | > 25 µM | > 25 µM | > 25 µM | > 25 µM | > 25 µM | > 25 µM | > 25 µM | > 25 µM
Cc1ccc([N+](=O)[O-])cc1NC(=O)Nc1cccc(F)c1 | 3.78 µM | 23 µM | 3.96 µM | > 100 µM | 8.85 µM | > 100 µM | 4.02 µM | > 100 µM | 9.77 µM | 43 µM | 5.78 µM | > 100 | 3.09 µM | 16.1 µM | 9.82 µM | > 100 µM | 2.46 µM | 11 µM | 4.19 µM | 17.7 µM
COc1ccc2oc(=O)cc(C(c3ccc[nH]3)c3ccc[nH]3)c2c1 | 0.124 µM | 13.1 µM | 0.105 µM | 29.9 µM | 0.221 µM | 0.549 µM | < 0.0502 µM |  | 0.107 µM | 11.7 µM | 0.104 µM | 7.57 | 0.107 µM | 10.3 µM | 0.128 µM | 19.9 µM | 0.092 µM | 0.214 µM | 0.155 µM | 15.6 µM
Nc1c(C(=O)c2cccc(CCCN3CCOCC3)c2)cnn1-c1ccc(F)cc1 | > 25 µM | > 25 µM | > 25 µM | > 25 µM | > 25 µM | > 25 µM | > 25 µM | > 25 µM | > 25 µM | > 25 µM | > 25 µM | > 25 | > 25 µM | > 25 µM | > 25 µM | > 25 µM | > 25 µM | > 25 µM | > 25 µM | > 25 µM
